Results from ChEMBL document CHEMBL5352447, “Development of [1,2]oxazoloisoindoles tubulin polymerization inhibitors: Further chemical modifications and potential therapeutic effects against lymphomas” (Eur J Med Chem, 2022).

How the values were obtained:
SK-MEL-5 = test: Antiproliferative activity against human SK-MEL-5 cells assessed as cell growth inhibition incubated for 72 hrs by MTT assay; type: functional
OVCAR-5 = test: Antiproliferative activity against human OVCAR-5 cells assessed as cell growth inhibition incubated for 72 hrs by MTT assay; type: functional
MCF7 = test: Antiproliferative activity against human MCF7 cells assessed as cell growth inhibition incubated for 72 hrs by MTT assay; type: functional
UO-31 = test: Antiproliferative activity against human UO-31 cells assessed as cell growth inhibition incubated for 72 hrs by MTT assay; type: functional
SN12C = test: Antiproliferative activity against human SN12C cells assessed as cell growth inhibition incubated for 72 hrs by MTT assay; type: functional
SK-MEL-28 = test: Antiproliferative activity against human SK-MEL-28 cells assessed as cell growth inhibition incubated for 72 hrs by MTT assay; type: functional
Hs-578T = test: Antiproliferative activity against human Hs-578T cells assessed as cell growth inhibition incubated for 72 hrs by MTT assay; type: functional
SF-268 = test: Antiproliferative activity against human SF-268 cells assessed as cell growth inhibition incubated for 72 hrs by MTT assay; type: functional
[1] = Antiproliferative activity against human HBL1 cells assessed as proliferating cells at 1 uM incubated for 72 hrs by MTT assay relative to control; type: functional
SW-620 = test: Antiproliferative activity against human SW620 cells assessed as cell growth inhibition incubated for 72 hrs by MTT assay; type: functional
SK-MEL-2 = test: Antiproliferative activity against human SK-MEL-2 cells assessed as cell growth inhibition incubated for 72 hrs by MTT assay; type: functional
NCI-H23 = test: Antiproliferative activity against human NCI-H23 cells assessed as cell growth inhibition incubated for 72 hrs by MTT assay; type: functional
786-0 = test: Antiproliferative activity against human 786-0 cells assessed as cell growth inhibition incubated for 72 hrs by MTT assay; type: functional
UACC-257 = test: Antiproliferative activity against human UACC-257 cells assessed as cell growth inhibition incubated for 72 hrs by MTT assay; type: functional
SNB-19 = test: Antiproliferative activity against human SNB-19 cells assessed as cell growth inhibition incubated for 72 hrs by MTT assay; type: functional
NCI-H460 = test: Antiproliferative activity against human NCI-H460 cells assessed as cell growth inhibition incubated for 72 hrs by MTT assay; type: functional
UACC-62 = test: Antiproliferative activity against human UACC-62 cells assessed as cell growth inhibition incubated for 72 hrs by MTT assay; type: functional
MDA-MB-468 = test: Antiproliferative activity against human MDA-MB-468 cells assessed as cell growth inhibition incubated for 72 hrs by MTT assay; type: functional
HCT-15 = test: Antiproliferative activity against human HCT-15 cells assessed as cell growth inhibition incubated for 72 hrs by MTT assay; type: functional
SR = test: Antiproliferative activity against human SR cells assessed as cell growth inhibition incubated for 72 hrs by MTT assay; type: functional
U-251 = test: Antiproliferative activity against human U-251 cells assessed as cell growth inhibition incubated for 72 hrs by MTT assay; type: functional
CCRF-CEM = test: Antiproliferative activity against human CCRF-CEM cells assessed as cell growth inhibition incubated for 72 hrs by MTT assay; type: functional
HCT-116 = test: Antiproliferative activity against human HCT-116 cells assessed as cell growth inhibition incubated for 72 hrs by MTT assay; type: functional
M14 = test: Antiproliferative activity against human M14 cells assessed as cell growth inhibition incubated for 72 hrs by MTT assay; type: functional
OVCAR-8 = test: Antiproliferative activity against human OVCAR-8 cells assessed as cell growth inhibition incubated for 72 hrs by MTT assay; type: functional
SU-DHL10 [2] = test: Antiproliferative activity against human SU-DHL-10 cells assessed as inhibition of cell proliferation incubated for 72 hrs by MTT assay; type: functional, cell-based; conditions: SU-DHL10, 72 h
EKVX = test: Antiproliferative activity against human EKVX cells assessed as cell growth inhibition incubated for 72 hrs by MTT assay; type: functional
NCI-H322M = test: Antiproliferative activity against human NCI-H322M cells assessed as cell growth inhibition incubated for 72 hrs by MTT assay; type: functional
T47D = test: Antiproliferative activity against human T47D cells assessed as cell growth inhibition incubated for 72 hrs by MTT assay; type: functional
SNB-75 = test: Antiproliferative activity against human SNB-75 cells assessed as cell growth inhibition incubated for 72 hrs by MTT assay; type: functional
DU-145 = test: Antiproliferative activity against human DU-145 cells assessed as cell growth inhibition incubated for 72 hrs by MTT assay; type: functional
[3] = Antiproliferative activity against human MINO cells assessed as proliferating cells at 1 uM incubated for 72 hrs by MTT assay relative to control; type: functional
TK-10 = test: Antiproliferative activity against human TK-10 cells assessed as cell growth inhibition incubated for 72 hrs by MTT assay; type: functional
HT-29 = test: Antiproliferative activity against human HT-29 cells assessed as cell growth inhibition incubated for 72 hrs by MTT assay; type: functional
BT-549 = test: Antiproliferative activity against human BT-549 cells assessed as cell growth inhibition incubated for 72 hrs by MTT assay; type: functional
MDA-MB-435 = test: Antiproliferative activity against human MDA-MB-435 cells assessed as cell growth inhibition incubated for 72 hrs by MTT assay; type: functional
SU-DHL10 [4] = test: Antiproliferative activity against human SU-DHL-10 cells assessed as proliferating cells at 1 uM incubated for 72 hrs by MTT assay relative to control; type: functional
SF-539 = test: Antiproliferative activity against human SF-539 cells assessed as cell growth inhibition incubated for 72 hrs by MTT assay; type: functional
SF-295 = test: Antiproliferative activity against human SF-295 cells assessed as cell growth inhibition incubated for 72 hrs by MTT assay; type: functional
HOP-92 = test: Antiproliferative activity against human HOP-92 cells assessed as cell growth inhibition incubated for 72 hrs by MTT assay; type: functional
VL51 = test: Antiproliferative activity against human VL51 cells assessed as proliferating cells at 1 uM incubated for 72 hrs by MTT assay relative to control; type: functional
ACHN = test: Antiproliferative activity against human ACHN cells assessed as cell growth inhibition incubated for 72 hrs by MTT assay; type: functional
SK-OV-3 = test: Antiproliferative activity against human SK-OV-3 cells assessed as cell growth inhibition incubated for 72 hrs by MTT assay; type: functional
RPMI-8226 = test: Antiproliferative activity against human RPMI-8226 cells assessed as cell growth inhibition incubated for 72 hrs by MTT assay; type: functional
A549 = test: Antiproliferative activity against human A549 cells assessed as cell growth inhibition incubated for 72 hrs by MTT assay; type: functional
RXF 393 = test: Antiproliferative activity against human RXF 393 cells assessed as cell growth inhibition incubated for 72 hrs by MTT assay; type: functional
Malme-3M = test: Antiproliferative activity against human Malme-3M cells assessed as cell growth inhibition incubated for 72 hrs by MTT assay; type: functional

Q: With `CCOC(=O)c1noc2c1CCc1c-2cn(Cc2ccc(OC)cc2)c1-c1cc(OC)c(OC)c(OC)c1` as the compound, how does the GI50 (SK-MEL-5) read?
A: 490 nM

Q: And the GI50 (OVCAR-5)?
A: 4720 nM

Q: What about the GI50 (MCF7) of the same compound?
A: 350 nM

Q: And the GI50 (UO-31)?
A: 3440 nM

Q: What about the GI50 (SN12C) of the same compound?
A: 3920 nM

Q: What about the GI50 (SK-MEL-28) of the same compound?
A: 1900 nM

Q: And the GI50 (Hs-578T)?
A: 2990 nM

Q: What about the GI50 (SF-268) of the same compound?
A: 8070 nM

Q: What about the Activity [1] of the same compound?
A: 70.1%

Q: What about the GI50 (SW-620) of the same compound?
A: 500 nM

Q: What about the GI50 (SK-MEL-2) of the same compound?
A: 4290 nM

Q: And the GI50 (NCI-H23)?
A: 3040 nM

Q: What about the GI50 (786-0) of the same compound?
A: 3650 nM

Q: And the GI50 (UACC-257)?
A: 85800 nM

Q: And the GI50 (SNB-19)?
A: 670 nM

Q: What about the GI50 (NCI-H460) of the same compound?
A: 1000 nM

Q: What about the GI50 (UACC-62) of the same compound?
A: 2740 nM

Q: And the GI50 (MDA-MB-468)?
A: 5620 nM

Q: What about the GI50 (HCT-15) of the same compound?
A: 500 nM

Q: What about the GI50 (SR) of the same compound?
A: 2090 nM

Q: And the GI50 (U-251)?
A: 540 nM

Q: And the GI50 (CCRF-CEM)?
A: 1040 nM

Q: What about the GI50 (HCT-116) of the same compound?
A: 400 nM

Q: And the GI50 (M14)?
A: 410 nM

Q: What about the GI50 (OVCAR-8) of the same compound?
A: 3040 nM

Q: And the IC50 (SU-DHL10 [2])?
A: 2000 nM

Q: And the GI50 (EKVX)?
A: 3920 nM

Q: What about the GI50 (NCI-H322M) of the same compound?
A: 5460 nM

Q: What about the GI50 (T47D) of the same compound?
A: > 100000 nM

Q: What about the GI50 (SNB-75) of the same compound?
A: 3650 nM

Q: What about the GI50 (DU-145) of the same compound?
A: 2320 nM

Q: And the Activity [3]?
A: 41.3%

Q: And the GI50 (TK-10)?
A: > 100000 nM

Q: And the GI50 (HT-29)?
A: 850 nM

Q: And the GI50 (BT-549)?
A: 1470 nM

Q: And the GI50 (MDA-MB-435)?
A: 570 nM

Q: And the Activity (SU-DHL10 [4])?
A: 59%

Q: And the GI50 (SF-539)?
A: 1840 nM

Q: What about the GI50 (SF-295) of the same compound?
A: 3020 nM

Q: What about the GI50 (HOP-92) of the same compound?
A: 2720 nM

Q: What about the Activity (VL51) of the same compound?
A: 79.7%

Q: And the GI50 (ACHN)?
A: 3510 nM

Q: What about the GI50 (SK-OV-3) of the same compound?
A: 5230 nM

Q: And the GI50 (RPMI-8226)?
A: 2850 nM

Q: What about the GI50 (A549) of the same compound?
A: 3800 nM

Q: What about the GI50 (RXF 393) of the same compound?
A: 2170 nM

Q: Which GI50 (SK-MEL-5) does the source give for `COc1ccc(Cn2cc3c(c2-c2cc(OC)c(OC)c(OC)c2)CCc2c(CO)noc2-3)cc1` here?
A: 210 nM

Q: What about the GI50 (OVCAR-5) of the same compound?
A: 710 nM

Q: What about the GI50 (MCF7) of the same compound?
A: 90 nM

Q: And the GI50 (UO-31)?
A: 580 nM

Q: What about the GI50 (SN12C) of the same compound?
A: 720 nM

Q: What about the GI50 (SK-MEL-28) of the same compound?
A: 3600 nM

Q: And the GI50 (Hs-578T)?
A: 410 nM

Q: And the GI50 (SF-268)?
A: 1060 nM

Q: What about the Activity [1] of the same compound?
A: 80.3%

Q: And the GI50 (SW-620)?
A: 370 nM

Q: And the GI50 (SK-MEL-2)?
A: 460 nM

Q: And the GI50 (NCI-H23)?
A: 520 nM

Q: And the GI50 (786-0)?
A: 360 nM

Q: And the GI50 (UACC-257)?
A: 14700 nM

Q: What about the GI50 (SNB-19) of the same compound?
A: 390 nM

Q: What about the GI50 (NCI-H460) of the same compound?
A: 340 nM

Q: What about the GI50 (UACC-62) of the same compound?
A: 250 nM

Q: And the GI50 (MDA-MB-468)?
A: 330 nM

Q: What about the GI50 (HCT-15) of the same compound?
A: 260 nM

Q: What about the GI50 (SR) of the same compound?
A: 210 nM

Q: What about the GI50 (U-251) of the same compound?
A: 330 nM

Q: What about the GI50 (Malme-3M) of the same compound?
A: 13500 nM

Q: What about the GI50 (CCRF-CEM) of the same compound?
A: 320 nM

Q: What about the GI50 (HCT-116) of the same compound?
A: 270 nM

Q: What about the GI50 (M14) of the same compound?
A: 150 nM

Q: What about the GI50 (OVCAR-8) of the same compound?
A: 380 nM

Q: And the IC50 (SU-DHL10 [2])?
A: 1800 nM

Q: And the GI50 (EKVX)?
A: 510 nM

Q: And the GI50 (NCI-H322M)?
A: 640 nM

Q: And the GI50 (SNB-75)?
A: 180 nM

Q: And the GI50 (DU-145)?
A: 390 nM

Q: And the Activity [3]?
A: 82.1%

Q: And the GI50 (TK-10)?
A: 17700 nM

Q: What about the GI50 (HT-29) of the same compound?
A: 320 nM

Q: And the GI50 (BT-549)?
A: 490 nM

Q: And the GI50 (MDA-MB-435)?
A: 30 nM

Q: What about the Activity (SU-DHL10 [4]) of the same compound?
A: 62.1%

Q: What about the GI50 (SF-539) of the same compound?
A: 230 nM

Q: And the GI50 (SF-295)?
A: 180 nM

Q: And the GI50 (HOP-92)?
A: 3390 nM

Q: And the Activity (VL51)?
A: 51.3%

Q: What about the GI50 (ACHN) of the same compound?
A: 620 nM

Q: And the GI50 (SK-OV-3)?
A: 370 nM

Q: What about the GI50 (RPMI-8226) of the same compound?
A: 420 nM

Q: What about the GI50 (A549) of the same compound?
A: 420 nM

Q: What about the GI50 (RXF 393) of the same compound?
A: 160 nM
